Data published in patent US4409210A, “Antibiotic compound” (priority 1982, dated 1983).
Values after ≈ are worked out from the molar mass of the structure shown.

Tests used:
Format in all cases: cell-based
E. coli NIHJ = assay: Antibiotic sensitivity, paper disc-agar diffusion method; set-up: key: S (sensitive); R (resistant); I (intermediate); conditions: nutrient agar, 2 day's incubation at 28° C., Difco discs, amount/disc per antibiotic
[1] = test system: Staphylococcus aureus 209P; assay: MIC, serial two-fold dilution method (aerobic); conditions: Staphylococcus aureus 209P, Mueller-Hinton agar, inoculum 10^4
[2] = test system: Staphylococcus aureus Smith; assay: MIC, serial two-fold dilution method (aerobic); conditions: Staphylococcus aureus Smith, Mueller-Hinton agar, inoculum 10^4
[3] = test system: Staphylococcus aureus A22421; assay: MIC, serial two-fold dilution method (aerobic); conditions: Staphylococcus aureus A22421, Mueller-Hinton agar, inoculum 10^4
[4] = test system: Streptococcus pyogenes Dick; assay: MIC, serial two-fold dilution method (aerobic); conditions: Streptococcus pyogenes Dick, GC medium, inoculum 10^6 CFU/ml
Micrococcus flavus D-12 = assay: MIC, serial two-fold dilution method (aerobic); conditions: Micrococcus flavus D-12, Mueller-Hinton agar, inoculum 10^4
[5] = test system: Bacillus anthracis IID-115; assay: microbe, parasite or virus in culture
Escherichia coli NIHJ = assay: MIC, serial two-fold dilution method (aerobic); conditions: Escherichia coli NIHJ, Mueller-Hinton agar, inoculum 10^4
Proteus vulgaris A9436 = assay: MIC, serial two-fold dilution method (aerobic); conditions: Proteus vulgaris A9436, Mueller-Hinton agar, inoculum 10^4
[6] = test system: Neisseria gonorrhoeae A15112; assay: MIC, serial two-fold dilution method (aerobic); conditions: Neisseria gonorrhoeae A15112, GC medium, inoculum 10^6 CFU/ml
[7] = test system: Haemophilus influenzae A9729; assay: MIC, serial two-fold dilution method (aerobic); conditions: Haemophilus influenzae A9729, GC medium, inoculum 10^6 CFU/ml
[8] = test system: Clostridium acidiurici A9560; assay: MIC, serial two-fold dilution method (anaerobic); conditions: Clostridium acidiurici A9560, GAM agar medium, inoculum 10^7-10^8
[9] = test system: Clostridium chauvoei A9561; assay: MIC, serial two-fold dilution method (anaerobic); conditions: Clostridium chauvoei A9561, GAM agar medium, inoculum 10^7-10^8
Method: (§1) The minimum inhibitory concentration (MIC) of Bu-2517 was determined for a variety of aerobic and anaerobic bacteria by the serial two-fold dilution method using a multi-inoculating apparatus. Mueller-Hinton agar was generally used for aerobic bacteria, GC medium (Eiken) for fastidious aerobic organisms such as streptococci, Neisseria and Haemophilus species, and GAM agar medium (Nissui) for anaerobic bacteria. The inoculum size was adjusted to 10^6 CFU/ml for streptococci, Neisseria and Haemophilus species, 10^4 for other aerobic bacteria and 10^7 -10^8 for all anaerobic organisms. Amphomycin, ampicillin, chloramphenicol, clindamycin, erthromycin, kanamycin and vancomycin were used as reference antibiotics.

[10] = test system: Clostridium difficile A21675; assay: MIC, serial two-fold dilution method (anaerobic); conditions: Clostridium difficile A21675, GAM agar medium, inoculum 10^7-10^8
Method: as §1

[11] = test system: Clostridium difficile A21972; assay: MIC, serial two-fold dilution method (anaerobic); conditions: Clostridium difficile A21972, GAM agar medium, inoculum 10^7-10^8
Method: as §1

[12] = test system: Clostridium septicum A21869; assay: MIC, serial two-fold dilution method (anaerobic); conditions: Clostridium septicum A21869, GAM agar medium, inoculum 10^7-10^8
Method: as §1

[13] = test system: Clostridium ramosum A21970; assay: MIC, serial two-fold dilution method (anaerobic); conditions: Clostridium ramosum A21970, GAM agar medium, inoculum 10^7-10^8
[14] = test system: Peptococcus magnas A21676; assay: MIC, serial two-fold dilution method (anaerobic); conditions: Peptococcus magnas A21676, GAM agar medium, inoculum 10^7-10^8
[15] = test system: Bacteroides fragilis CUH-24; assay: MIC, serial two-fold dilution method (anaerobic); conditions: Bacteroides fragilis CUH-24, GAM agar medium, inoculum 10^7-10^8
[16] = test system: Bacteroides fragilis A20928-1; assay: MIC, serial two-fold dilution method (anaerobic); conditions: Bacteroides fragilis A20928-1, GAM agar medium, inoculum 10^7-10^8
[17] = test system: Bacteroides fragilis A20929; assay: MIC, serial two-fold dilution method (anaerobic); conditions: Bacteroides fragilis A20929, GAM agar medium, inoculum 10^7-10^8
[18] = test system: Bacteroides fragilis A22053; assay: MIC, serial two-fold dilution method (anaerobic); conditions: Bacteroides fragilis A22053, GAM agar medium, inoculum 10^7-10^8
[19] = test system: Bacteroides fragilis A22533; assay: MIC, serial two-fold dilution method (anaerobic); conditions: Bacteroides fragilis A22533, GAM agar medium, inoculum 10^7-10^8
[20] = test system: Bacteroides fragilis A22695; assay: MIC, serial two-fold dilution method (anaerobic); conditions: Bacteroides fragilis A22695, GAM agar medium, inoculum 10^7-10^8
[21] = test system: Fusobacterium necrophorum A20013; assay: MIC, serial two-fold dilution method (anaerobic); conditions: Fusobacterium necrophorum A20013, GAM agar medium, inoculum 10^7-10^8
[22] = test system: Fusobacterium nucleatum A21906; assay: MIC, serial two-fold dilution method (anaerobic); conditions: Fusobacterium nucleatum A21906, GAM agar medium, inoculum 10^7-10^8
[23] = read-out: minimum inhibitory concentration (MIC)
[24] = Clostridioides difficile, read-out: minimum inhibitory concentration (MIC)

CC1(C)S[C@@H]2[C@H](NC(=O)[C@H](N)c3ccccc3)C(=O)N2[C@H]1C(=O)O [Ampicillin]
Sensitivity E. coli NIHJ (E. coli NIHJ): S
MIC [1, 23]: 0.013 µg/mL (≈ 0.0372 µM)
MIC [2, 23]: 0.05 µg/mL (≈ 0.143 µM)
MIC [3, 23]: 12.5 µg/mL (≈ 35.8 µM)
MIC [4, 23]: 0.013 µg/mL (≈ 0.0372 µM)
MIC (Micrococcus flavus D-12; D12, read-out: minimum inhibitory concentration (MIC)): 0.1 µg/mL (≈ 0.286 µM)
MIC ([5]; Bacillus anthracis, IID115, read-out: minimum inhibitory concentration (MIC)): 0.013 µg/mL (≈ 0.0372 µM)
MIC (Escherichia coli NIHJ; [23]): 0.4 µg/mL (≈ 1.14 µM)
MIC (Proteus vulgaris A9436; [23]): 0.4 µg/mL (≈ 1.14 µM)
MIC [6, 23]: 0.4 µg/mL (≈ 1.14 µM)
MIC [7, 23]: 0.8 µg/mL (≈ 2.29 µM)
MIC ([8]; Gottschalkia acidurici, read-out: minimum inhibitory concentration (MIC)): 0.8 µg/mL (≈ 2.29 µM)
MIC [9, 23]: 0.4 µg/mL (≈ 1.14 µM)
MIC [10, 24]: 1.6 µg/mL (≈ 4.58 µM)
MIC [11, 24]: 0.2 µg/mL (≈ 0.572 µM)
MIC [12, 23]: 0.8 µg/mL (≈ 2.29 µM)
MIC ([13]; Thomasclavelia ramosa, read-out: minimum inhibitory concentration (MIC)): 0.8 µg/mL (≈ 2.29 µM)
MIC [14, 23]: 0.1 µg/mL (≈ 0.286 µM)
MIC ([15]; CUH24, read-out: minimum inhibitory concentration (MIC)): 50 µg/mL (≈ 143 µM)
MIC ([16]; A209281, read-out: minimum inhibitory concentration (MIC)): 0.2 µg/mL (≈ 0.572 µM)
MIC [17, 23]: 0.8 µg/mL (≈ 2.29 µM)
MIC [18, 23]: 6.3 µg/mL (≈ 18 µM)
MIC [19, 23]: > 100 µg/mL
MIC [20, 23]: > 100 µg/mL
MIC [21, 23]: > 100 µg/mL
MIC [22, 23]: 12.5 µg/mL (≈ 35.8 µM)

Amphomycin
minimum inhibitory concentration (MIC) [1]: 3.1 µg/mL
minimum inhibitory concentration (MIC) [2]: 3.1 µg/mL
minimum inhibitory concentration (MIC) [3]: 3.1 µg/mL
minimum inhibitory concentration (MIC) [4]: 12.5 µg/mL
minimum inhibitory concentration (MIC) (Micrococcus flavus D-12): 0.4 µg/mL
minimum inhibitory concentration (MIC) ([5]; Bacillus anthracis IID-115, Mueller-Hinton agar, inoculum 10^4): 0.8 µg/mL
minimum inhibitory concentration (MIC) (Escherichia coli NIHJ): > 100 µg/mL
minimum inhibitory concentration (MIC) (Proteus vulgaris A9436): > 100 µg/mL
minimum inhibitory concentration (MIC) [6]: > 100 µg/mL
minimum inhibitory concentration (MIC) [7]: > 100 µg/mL
minimum inhibitory concentration (MIC) [8]: 3.1 µg/mL
minimum inhibitory concentration (MIC) [9]: 6.3 µg/mL
minimum inhibitory concentration (MIC) [10]: 3.1 µg/mL
minimum inhibitory concentration (MIC) [11]: 25 µg/mL
minimum inhibitory concentration (MIC) [12]: 6.3 µg/mL
minimum inhibitory concentration (MIC) [13]: 25 µg/mL
minimum inhibitory concentration (MIC) [14]: 6.3 µg/mL
minimum inhibitory concentration (MIC) [15]: > 100 µg/mL
minimum inhibitory concentration (MIC) [16]: 25 µg/mL
minimum inhibitory concentration (MIC) [17]: 50 µg/mL
minimum inhibitory concentration (MIC) [18]: > 100 µg/mL
minimum inhibitory concentration (MIC) [19]: > 100 µg/mL
minimum inhibitory concentration (MIC) [20]: > 100 µg/mL
minimum inhibitory concentration (MIC) [21]: > 100 µg/mL
minimum inhibitory concentration (MIC) [22]: 6.3 µg/mL
